# Columns and labels:
# cotton bollworm eggs = test: Killing insect eggs, cotton bollworm model system (3 second dip, egg hatch over 4 days); format: in vivo; settings: 2-undecanone from 1 to 8% in absolute ethanol, hatch assessed 4 days, highest level of the dose response
# From the text: Due to their obligate parasitic lifestyle, lice, head lice, in particular, are very difficult to obtain. Thus, bollworm eggs were used in place of lice eggs for the experiments showing efficacy of the treatments described herein. […] Therefore, it is understood that if the treatment works on bollworm eggs, it will also work on the eggs of head lice. Further, the experiments using body lice, a recognized proxy for head lice, confirmed the effectiveness of the treatment with the formulations of this invention.
# All treatments were conducted by dipping the bollworm eggs in the different treatments for 3 seconds, allowing the eggs to dry at room temperature, and then assessing egg hatch for the following 4 days. The eggs typically hatch under these conditions in 2.5 days. The solvent used in these experiments was absolute ethanol.
# insect pest eggs = test: Exposure of insect pest eggs to formulations, percent killed; format: in vivo
# From the text: As well understood, the percentage of eggs killed may depend on the concentration of the ovicide and the exposure time to the ovicide (e.g., the time for applying). Thus, applying or contacting of the compositions and formulations of the invention generally results in the killing of about 45% to about 100% (e.g., about 45, 50, 55, 60, 65, 70, 75, 80, 85, 90, 95, 100%) of the insect pest eggs for any given time period. However, the compositions and formulations are shown to work very quickly and efficiently, resulting in a killing of 100% of the insect pest eggs following a very short contact or application time. Thus, in some embodiments, a one to five second exposure results in a 100% kill of the insect pest eggs. In some embodiments, exposure of insect pest eggs to a formulation of 1% 2-undecanone and 1% DE for 3 seconds kills about 100% of the insect pest eggs. In some embodiments, exposure of insect pest eggs to a formulation of 8% 2-undecanone and 1% DE for 1 second kills about 100% of the insect pest eggs. In some embodiments, exposure of insect pest eggs to a formulation of 5% 2-undecanone for 1 second kills about 70% of the insect pest eggs. In some embodiments, exposure of insect pest eggs to a formulation of 15% 2-undecanone for about one to about five second kills about 100% of the insect pest eggs. […]
# [1] = Evaporation of 2-undecanone after application; format: physicochemical; settings: typically
# lice = test: Killing of lice stages; format: in vivo; settings: all stages of the lice
# eggs = test: Residual activity against eggs; format: in vivo; settings: after application
smiles,measurement,setting,value
CCCCCCCCCC(C)=O [2-undecanone],egg mortality,cotton bollworm eggs,about 90%
same,insect pest eggs killed,"insect pest eggs; 5% 2-undecanone, exposure 1 second",about 70%
same,insect pest eggs killed,"insect pest eggs; 15% 2-undecanone, exposure about one to about five second",about 100%
same,time to evaporate,[1],≤ 30 min
same,killing of lice stages,lice,kill all stages of the lice
same,residual activity against eggs,eggs,minimal residual activity

# Source: US10779532B2, “Methods and compositions for killing of insect pest eggs” (North Carolina State University, priority 2016, dated 2020)
